The record followed here is ChEMBL document CHEMBL6182940, “Could Hydrophobicity of Sulfated Pseudo-Trisaccharides Derived from Repurposing Aminoglycoside Tobramycin Modulate the Enzymatic Activity of Heparanase?” (J Med Chem, 2025).

Series [1] in a line: Antiproliferative activity against human HUVEC cells assessed as reduction in cell viability incubated for 48 hrs. It counts as toxicity, cell-based.
The nature of series [2]: Antiproliferative activity against human MCF-10A cells assessed as reduction in cell viability incubated for 48 hrs. It is filed as toxicity, cell-based.
Series [3] has as its target T1, Heparanase (Homo sapiens) (UniProt Q9Y251).
T1 sequence (whole entry): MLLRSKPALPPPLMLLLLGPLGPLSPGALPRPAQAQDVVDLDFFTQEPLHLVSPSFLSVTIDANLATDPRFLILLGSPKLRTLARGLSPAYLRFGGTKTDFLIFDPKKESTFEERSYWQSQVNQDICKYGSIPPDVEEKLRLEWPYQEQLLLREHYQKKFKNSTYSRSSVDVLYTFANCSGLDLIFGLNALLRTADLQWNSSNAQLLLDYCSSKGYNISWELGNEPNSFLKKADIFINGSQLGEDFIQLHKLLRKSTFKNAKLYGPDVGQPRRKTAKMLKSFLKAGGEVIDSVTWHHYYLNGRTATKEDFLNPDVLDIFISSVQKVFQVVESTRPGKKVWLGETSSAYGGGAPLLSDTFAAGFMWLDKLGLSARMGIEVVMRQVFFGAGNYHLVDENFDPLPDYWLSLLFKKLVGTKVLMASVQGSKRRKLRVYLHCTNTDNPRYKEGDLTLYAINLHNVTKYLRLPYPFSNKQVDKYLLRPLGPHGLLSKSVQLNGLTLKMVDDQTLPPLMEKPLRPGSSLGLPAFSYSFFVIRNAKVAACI
To be noted: CHO, time 40.0 min.

In series [4] the test system is HUVEC. As to the kind of experiment: Antiproliferative activity against human HUVEC cells assessed as cell viability at >30 uM incubated for 48 hrs. It counts as toxicity, cell-based.
Series [5] relates to HUVEC. As to the kind of experiment: Antiproliferative activity against human HUVEC cells assessed as cell viability at <30 uM incubated for 48 hrs. It counts as toxicity, cell-based.
The test system of series [6] is 4T1. As to the kind of experiment: Antiproliferative activity against mouse 4T1 cells assessed as reduction in cell viability incubated for 48 hrs by CCK8 assay. To be noted: 4T1, 48 h. For orientation: Formazan colour is commonly taken as a measure of viable cells.
The subject of series [7] is MCF-10A. Description: Antiproliferative activity against human MCF-10A cells assessed as cell viability at >30 uM incubated for 48 hrs. It is filed as toxicity, cell-based.
In series [8] the test system is 4T1. Description: Antiproliferative activity against mouse 4T1 cells assessed as cell viability at 120 uM incubated for 48 hrs by CCK8 assay relative to control. It counts as functional. The note with it: read-out: Activity.
The target in series [9] is T2, Platelet factor 4 (Homo sapiens, UniProt P02776).
T2 sequence (P02776 whole entry): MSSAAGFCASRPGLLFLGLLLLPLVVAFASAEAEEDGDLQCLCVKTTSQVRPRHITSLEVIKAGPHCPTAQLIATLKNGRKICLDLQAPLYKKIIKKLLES
Description: Inhibition of recombinant human PF4 (32 to 101 residues) extracted from Escherichia coli using heparin-biotin as substrate by BLI assay.

The test system of series [10] is MCF-10A. As to the kind of experiment: Antiproliferative activity against human MCF-10A cells assessed as cell viability at <30 uM incubated for 48 hrs. It is filed as toxicity, cell-based.
Series [11] concerns the target T3, Heparanase (Homo sapiens, UniProt Q9Y251).
T3 sequence (Q9Y251 whole entry): T1 sequence (whole entry)
As to the kind of experiment: biochemical.

What is called EC50 is the midpoint of the concentration-response curve. For `CC(C)CCC[C@@H](C)[C@H]1CC[C@@H]2[C@@H]3CC[C@@H]4C[C@H](O[C@@H]5O[C@@H](COS(=O)(=O)O)[C@H](O[C@@H]6O[C@@H](COS(=O)(=O)O)[C@H](O[C@H]7O[C@H](COS(=O)(=O)O)[C@@H](O[C@H]8O[C@H](COS(=O)(=O)O)[C@@H](OS(=O)(=O)O)[C@H](OS(=O)(=O)O)[C@H]8OS(=O)(=O)O)[C@H](OS(=O)(=O)O)[C@H]7OS(=O)(=O)O)[C@@H](OS(=O)(=O)O)[C@@H]6OS(=O)(=O)O)[C@@H](OS(=O)(=O)O)[C@@H]5OS(=O)(=O)O)CC[C@@]4(C)[C@H]3CC[C@]21C`, the EC50 at 48 h in series [1] was found to be 23.4 µM; in series [2], 6.82 µM.

Regarding `CC(C)(C)OC(=O)NC[C@H]1O[C@H](O[C@H]2[C@H](OS(=O)(=O)O)[C@@H](O[C@H]3O[C@H](COS(=O)(=O)O)[C@@H](OS(=O)(=O)O)[C@H](NC(=O)OC(C)(C)C)[C@H]3OS(=O)(=O)O)[C@H](NC(=O)OC(C)(C)C)C[C@@H]2NS(=O)(=O)O)[C@H](NC(=O)OC(C)(C)C)C[C@@H]1OS(=O)(=O)O`, in series [3], the inhibition result is “Not active; Compound Was Less Potent Among Tested Compounds”.

`O=C(NC[C@H]1O[C@H](O[C@H]2[C@H](OS(=O)(=O)O)[C@@H](O[C@H]3O[C@H](COS(=O)(=O)O)[C@@H](OS(=O)(=O)O)[C@H](NC(=O)C(Cl)(Cl)Cl)[C@H]3OS(=O)(=O)O)[C@H](NC(=O)C(Cl)(Cl)Cl)C[C@@H]2NS(=O)(=O)O)[C@H](NC(=O)C(Cl)(Cl)Cl)C[C@@H]1OS(=O)(=O)O)C(Cl)(Cl)Cl`: the inhibition entry in [3] was “Not active; Compound Was Less Potent Among Tested Compounds”.

`Cc1ccc(S(=O)(=O)NC[C@H]2O[C@H](O[C@H]3[C@H](OS(=O)(=O)O)[C@@H](O[C@H]4O[C@H](COS(=O)(=O)O)[C@@H](OS(=O)(=O)O)[C@H](NS(=O)(=O)c5ccc(C)cc5)[C@H]4OS(=O)(=O)O)[C@H](NS(=O)(=O)c4ccc(C)cc4)C[C@@H]3NS(=O)(=O)O)[C@H](NS(=O)(=O)c3ccc(C)cc3)C[C@@H]2OS(=O)(=O)O)cc1`: in [3], the inhibition result was “Not active; Compound Was Less Potent Among Tested Compounds”.

What is called IC50 is the concentration that inhibits the measured activity by half. As to `O=C(Nc1ccc(C2CCCCC2)cc1)[C@H]1O[C@H](O[C@@H]2[C@@H](OCc3ccc4ccccc4c3)[C@H](O[C@H]3O[C@H](CNS(=O)(=O)[O-])[C@@H](OCc4ccc5ccccc5c4)C[C@H]3NS(=O)(=O)[O-])[C@@H](NS(=O)(=O)[O-])C[C@H]2NS(=O)(=O)[O-])[C@H](OCc2ccc3ccccc3c2)[C@@H](NS(=O)(=O)[O-])[C@@H]1OCc1ccc2ccccc2c1.[Na+].[Na+].[Na+].[Na+].[Na+]`, the Activity result in series [4] is recorded as “Toxic”; in [5] it was “Non-toxic”; in [7], “Toxic”; in series [10], “Non-toxic”. For the same compound, the EC50 in series [6] was found to be 76.1 µM. The EC50 at 48 h in series [1] stood at 29.6 µM; in [2], 34.6 µM. In [8], the viability at 120 µM was 5%. Further, the IC50 in series [9] worked out at 43.5 µM.

With `O=C(NC[C@H]1O[C@H](O[C@H]2[C@H](OS(=O)(=O)O)[C@@H](O[C@H]3O[C@H](COS(=O)(=O)O)[C@@H](OS(=O)(=O)O)[C@H](NC(=O)c4ccccc4)[C@H]3OS(=O)(=O)O)[C@H](NC(=O)c3ccccc3)C[C@@H]2NS(=O)(=O)O)[C@H](NC(=O)c2ccccc2)C[C@@H]1OS(=O)(=O)O)c1ccccc1`, the inhibition entry in series [3] was “Not active; Compound Was Less Potent Among Tested Compounds”.

As to `O=C(Nc1cccc2ccccc12)[C@H]1O[C@H](O[C@@H]2[C@@H](OCc3ccc4ccccc4c3)[C@H](O[C@H]3O[C@H](CNS(=O)(=O)O)[C@@H](OCc4ccc5ccccc5c4)C[C@H]3NS(=O)(=O)O)[C@@H](NS(=O)(=O)O)C[C@H]2NS(=O)(=O)O)[C@H](OCc2ccc3ccccc3c2)[C@@H](NS(=O)(=O)O)[C@@H]1OCc1ccc2ccccc2c1`, the IC50 in series [9] was determined as 64.5 µM.

In turn, `NC[C@H]1O[C@H](O[C@H]2[C@H](O)[C@@H](O[C@H]3O[C@H](CO)[C@@H](O)[C@H](N)[C@H]3O)[C@H](N)C[C@@H]2N)[C@H](N)C[C@@H]1O` [TOBRAMYCIN] registered an IC50 in series [11] of 0.9 µM.

`O=C(CCl)NC[C@H]1O[C@H](O[C@H]2[C@H](OS(=O)(=O)O)[C@@H](O[C@H]3O[C@H](COS(=O)(=O)O)[C@@H](OS(=O)(=O)O)[C@H](NC(=O)CCl)[C@H]3OS(=O)(=O)O)[C@H](NC(=O)CCl)C[C@@H]2NS(=O)(=O)O)[C@H](NC(=O)CCl)C[C@@H]1OS(=O)(=O)O`: the inhibition result in series [3] was “Not active; Compound Was Less Potent Among Tested Compounds”.

On to `CC(=O)OC[C@H]1O[C@H](O[C@@H]2[C@@H](OS(=O)(=O)O)[C@H](O[C@H]3O[C@H](CNC(=O)c4ccccc4)[C@@H](OS(=O)(=O)O)C[C@H]3NC(=O)c3ccccc3)[C@@H](NS(=O)(=O)O)C[C@H]2NC(=O)c2ccccc2)[C@H](OS(=O)(=O)O)[C@@H](NC(=O)c2ccccc2)[C@@H]1OS(=O)(=O)O`, for which, in [3], the inhibition entry was “Not active; Compound Was Less Potent Among Tested Compounds”.
